Patent publication US5110976A, “Insecticidal composition comprising more than one active ingredient” (priority 1985, dated 1992)
Converted amounts (≈) assume the structure as drawn.

Experiments:
Tetranychus urticae = assay: Potter Tower spray on mite-infested leaves (Table 19); assay type: in vivo, mites (Tetranychus urticae); settings: Tetranychus urticae, 24 h, mortality after 24 hours; read-out: approx. LD50
Procedure: Leaves already infested with mites (Tetranychus urticae) were sprayed under Potter Tower. Mortality after 24 hours on the treated leaves was compared with the control.

Acanthoscelides obtectus = assay: Comparative contact test (Table 15); assay type: in vivo, bean weevil (Acanthoscelides obtectus), imago
Procedure: (§1) The active ingredient is dissolved in a 1:2 mixture of oil and acetone; filter paper discs (Whatman No. 1, diameter 9 cm) are impregnated with the solutions of the corresponding stereoisomers and enantiomer-pairs, respectively. The acetone is allowed to evaporate, whereupon the insects are exposed to filter papers discs placed in Petri-dishes. Three parallels are used on each dose and 15 insects are placed into each Petri-dish. The percental mortality is determined after 24 hours. The corrected percent mortality is calculated by means of the Abbot Formula.
(§2) The comparative test of Ia, Ib and a 40:60 mixture of Ia:Ib is carried out on bean weevil (Acanthoscelides obtectus), flour-beetle, (Tribolium confusum), house fly (Musca domestica) and sheep maggot fly (Lucillia sericata). The test method described is Example 41.

tribolium confusum [1] = assay: Comparative contact test (Table 15); assay type: in vivo, flour-beetle (Tribolium confusum), imago; settings: 24 h
Procedure: as §1, §2

Tribolium confusum [2] = assay: Contact test on Tribolium confusum (Table 12); assay type: in vivo
Procedure: as §1
It appears from Table 12 that the increased activity shown in Example 41 is due to the synergistic effect of the trans-isomers to Tribolium confusum.

Tribolium confusum [3] = assay: Contact test, mixtures of Ia and Ib of various ratio (Table 13); assay type: in vivo, flour beetle (Tribolium confusum); settings: Tribolium confusum, 24 h
Procedure: as §1
In Table 13 the insecticidal effect of mixtures of enantiomer-pairs Ia and Ib of various ratio is shown on flour beetle (Tribolium confusum). The test method is that disclosed in Example 43.

Musca domestica [4] = assay: Filter paper disc contact test (Table 11); assay type: in vivo, house fly (Musca domestica); settings: Musca domestica, 24 h
Procedure: In Table 1 the activity of various stereoisomers of cypermethrin on the house fly (Musca domestica) is shown.
as §1

Hyphantria cunea = assay: Topical test on fall webworm (Table 18); assay type: in vivo, fall wetworm (Hyphantria cunea), L7-L8 larvae; settings: Hyphantria cunea, topical, 24 h
Procedure: The active ingredients are dissolved in 2-ethoxy-ethanol and the solutions are applied in the form of 0.2 μl droplets onto the back of fall wetworm (Hyphantria cunea) of L7 -L8 larvae stage. The treated worms are placed on strawberry leaves in Petri-dishes. The test is carried out by using […], 2 parallels and 10 insects for each dose. The killed worms are counted after 24 hours and the percental mortality rate is calculated.

Colorado potato beetle = assay: Topical test on Colorado potato beetle (Table 14); assay type: in vivo, Colorado potato beetle (Leptinotersa decemlineata), imago; settings: Leptinotarsa decemlineata, topical
Procedure: In Table 14 the activity on Colorado potato beetle is shown.
The test materials are dissolved in 2-ethoxyethanol (Cellosolve). One 0.3 μl drop of the solution is applied to the abdominal sterna of the imago. The treatment is carried out by using 2 parallels and 10 insects for each dose. […]

Lucillia sericata = assay: Comparative contact test (Table 15); assay type: in vivo, sheep maggot fly (Lucillia sericata), imago; parameters: key: % mortality after 24 h, Abbott-corrected; settings: 1440 min
Procedure: as §1, §2

T. confusum = assay: Activity as function of time, toxic symptoms (Table 16); assay type: in vivo, flour beetle (T. confusum), imagos
Procedure: as §1
Activity of cypermethrin stereoisomer-pairs as function of time on flour beetle (T. Confusum).
Flour beetle (T. confusum) imagos are exposed in Petri-dishes according to the method described in Example 43. For each dose 3 parallels are used and 15 animals are applied for each parallel test. In each point of time the insects lying on their backs are counted and the percental results are expressed in Table 16.

Musca domestica [5] = assay: Comparative contact test (Table 15); assay type: in vivo, house fly (Musca domestica), imago; settings: 24 h
Procedure: as §1, §2

Compound: CC1(C)[C@H](C=C(Cl)Cl)[C@H]1C(=O)O[C@H](C#N)c1cccc(Oc2ccccc2)c1 (relative stereo) [Ib]
- LC50 (Tetranychus urticae): ~0.34 µg/mL (≈ 0.817 µM)
- mortality at 20 µg/disc (Acanthoscelides obtectus; Acanthoscelides obtectus, 24 h, 0.02 mg/disc): 32%
- mortality at 70 µg/disc (Acanthoscelides obtectus; Acanthoscelides obtectus, 24 h, 0.07 mg/disc): 55%
- mortality at 220 µg/disc (Acanthoscelides obtectus; Acanthoscelides obtectus, 24 h, 0.22 mg/disc): 87%
- mortality at 670 µg/disc (Acanthoscelides obtectus; Acanthoscelides obtectus, 24 h, 0.67 mg/disc): 100%
- mortality at 2000 µg/disc (Acanthoscelides obtectus; Acanthoscelides obtectus, 24 h, 2.0 mg/disc): 100%
- mortality at 6000 µg/disc (Acanthoscelides obtectus; Acanthoscelides obtectus, 24 h, 6.0 mg/disc): 100%
- comparative activity (Acanthoscelides obtectus; Example 47, further insect species, Ib versus Ia): more active than Ia
- mortality at 20 µg/disc (tribolium confusum [1]; 0.02 mg/disc): 14%
- mortality at 70 µg/disc (tribolium confusum [1]; 0.07 mg/disc): 73%
- mortality at 220 µg/disc (tribolium confusum [1]; 0.22 mg/disc): 100%
- mortality at 670 µg/disc (tribolium confusum [1]; 0.67 mg/disc): 100%
- mortality at 2000 µg/disc (tribolium confusum [1]; 2.0 mg/disc): 100%
- mortality at 6000 µg/disc (tribolium confusum [1]; 6.0 mg/disc): 100%
- mortality at 110 µg/disc (Tribolium confusum [2]; Tribolium confusum, 24 h, 0.11 mg/disc): 64%
- mortality at 330 µg/disc (Tribolium confusum [2]; Tribolium confusum, 24 h, 0.33 mg/disc): 89%
- mortality at 1000 µg/disc (Tribolium confusum [2]; Tribolium confusum, 24 h, 1.00 mg/disc): 100%
- mortality at 3000 µg/disc (Tribolium confusum [2]; Tribolium confusum, 24 h, 3.00 mg/disc): 100%
- synergism between the members of the enantiomer-pair (Tribolium confusum [2]; in vivo): synergism observed
- mortality at 60 µg/disc (Tribolium confusum [3]; 0.06 mg/disc): 46%
- mortality at 250 µg/disc (Tribolium confusum [3]; 0.25 mg/disc): 100%
- mortality at 20 µg/disc (Tribolium confusum [3]; 0.02 mg/disc): 8%
- mortality at 1000 µg/disc (Tribolium confusum [3]; 1.00 mg/disc): 100%
- mortality at 40 µg/disc (Musca domestica [4]; 0.04 mg/disc): 32%
- mortality at 110 µg/disc (Musca domestica [4]; 0.11 mg/disc): 62%
- mortality at 330 µg/disc (Musca domestica [4]; 0.33 mg/disc): 95%
- mortality at 1000 µg/disc (Musca domestica [4]; 1.00 mg/disc): 100%
- mortality at 3000 µg/disc (Musca domestica [4]; 3.00 mg/disc): 100%
- mortality at 0.023 µg/disc (Hyphantria cunea; 0.023 (μg/disc)): 10%
- mortality at 0.047 µg/disc (Hyphantria cunea; 0.047 (μg/disc)): 15%
- mortality at 0.094 µg/disc (Hyphantria cunea; 0.094 (μg/disc)): 30%
- mortality at 0.188 µg/disc (Hyphantria cunea; 0.188 (μg/disc)): 70%
- mortality at 0.375 µg/disc (Hyphantria cunea; 0.375 (μg/disc)): 80%
- mortality at 0.05 µg/beetle (Colorado potato beetle; read-out: 24 hours' mortality %, 0.05 μg/beetle): 0%
- mortality at 0.1 µg/beetle (Colorado potato beetle; read-out: 24 hours' mortality %, 0.10 μg/beetle): 25%
- mortality at 0.2 µg/beetle (Colorado potato beetle; read-out: 24 hours' mortality %, 0.20 μg/beetle): 75%
- mortality at 0.4 µg/beetle (Colorado potato beetle; read-out: 24 hours' mortality %, 0.40 μg/beetle): 85%
- mortality (Lucillia sericata; 0.02 mg/disc): 22
- mortality (Lucillia sericata; 0.07 mg/disc): 55
- mortality (Lucillia sericata; 0.22 mg/disc): 70
- mortality (Lucillia sericata; 0.67 mg/disc): 75
- mortality (Lucillia sericata; 2.0 mg/disc): 100
- mortality (Lucillia sericata; 6.0 mg/disc): 100
- % of insects showing toxic symptoms (T. confusum; 30 minutes): 0%
- % of insects showing toxic symptoms (T. confusum; 30 minutes, 0.33 mg/disc): 0%
- % of insects showing toxic symptoms (T. confusum; 30 minutes, 1.00 mg/disc): 47%
- % of insects showing toxic symptoms (T. confusum; 30 minutes, 3.00 mg/disc): 61%
- % of insects showing toxic symptoms (T. confusum; 60 minutes): 0%
- % of insects showing toxic symptoms (T. confusum; 60 minutes, 0.33 mg/disc): 21%
- % of insects showing toxic symptoms (T. confusum; 60 minutes, 1.00 mg/disc): 82%
- % of insects showing toxic symptoms (T. confusum; 60 minutes, 3.00 mg/disc): 100%
- % of insects showing toxic symptoms (T. confusum; 120 minutes): 28%
- % of insects showing toxic symptoms (T. confusum; 120 minutes, 0.33 mg/disc): 100%
- % of insects showing toxic symptoms (T. confusum; 120 minutes, 1.00 mg/disc): 100%
- % of insects showing toxic symptoms (T. confusum; 120 minutes, 3.00 mg/disc): 100%
- % of insects showing toxic symptoms (T. confusum; 180 minutes): 56%
- % of insects showing toxic symptoms (T. confusum; 180 minutes, 0.33 mg/disc): 100%
- % of insects showing toxic symptoms (T. confusum; 180 minutes, 1.00 mg/disc): 100%
- % of insects showing toxic symptoms (T. confusum; 180 minutes, 3.00 mg/disc): 100%
- mortality at 20 µg/disc (Musca domestica [5]; 0.02 mg/disc): 0%
- mortality at 70 µg/disc (Musca domestica [5]; 0.07 mg/disc): 18%
- mortality at 220 µg/disc (Musca domestica [5]; 0.22 mg/disc): 67%
- mortality at 670 µg/disc (Musca domestica [5]; 0.67 mg/disc): 100%
- mortality at 2000 µg/disc (Musca domestica [5]; 2.0 mg/disc): 100%
- mortality at 6000 µg/disc (Musca domestica [5]; 6.0 mg/disc): 100%
